Measured values taken from patent publication US10144715B2, “Piperazine derivatives as liver X receptor modulators” (priority 2014, dated 2018).
Like-named read-outs stand apart in the source and are kept apart here.

What was measured:
LXR α LBD protein [1] = biological target: T1, LXR α LBD protein (Homo sapiens (Human), UniProt Q13133); assay: LXR α radioligand binding assay (SPA, competition with [3H]TO901317); conditions: read-out: LXRα Binding Ki
[2] = biological target: T2, Gal4 DNA binding domain fused to the LBD of LXRα in HEK293 cells (Homo sapiens (Human), UniProt Q13133); assay: LXR luciferase transcriptional reporter gene assay, agonist mode, LXRα; type: cell-based; conditions: for EC50: read-out: Cell LXRα EC50
[3] = biological target: T3, Gal4 DNA binding domain fused to the LBD of LXRβ in HEK293 cells (Homo sapiens (Human), UniProt P55055); assay: cell-based; conditions: for Cell LXRβ efficacy: agonist mode
[4] = biological target: T3, Gal4 DNA binding domain fused to the LBD of LXRβ in HEK293 cells; assay: cell-based; type: cell-based
[5] = biological target: T2, Gal4 DNA binding domain fused to the LBD of LXRα in HEK293 cells; assay: LXR luciferase transcriptional reporter gene assay, antagonist mode (200 nM T0901317), LXRα; type: cell-based; conditions: for IC50: read-out: Cell LXRα IC50
LXR β LBD protein = LXR β LBD protein (Homo sapiens (Human), UniProt P55055); assay: biochemical; type: binding; conditions: read-out: LXRβ Binding Ki
LXR α LBD protein [6] = biological target: T1, LXR α LBD protein; assay: Human LXRα coactivator recruitment FRET assay, agonist mode; type: biochemical; conditions: agonist mode
Method in brief: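 LXRα- or LXRβ-LBD at 10 nM (2×) mixed with compound in DMSO, then fluorescein-SRC2-3 peptide 200 nM and Tb-anti-GST antibody 20 nM (4×) added; 2 h at rt. Time-resolved FRET read, 100 µs delay, 200 µs window; EC50 from four-parameter fit of percent control.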

[7] = antagonist mode, 200 nM T0901317, HEK293 reporter gene assay

T2 sequence (Q13133 209-447): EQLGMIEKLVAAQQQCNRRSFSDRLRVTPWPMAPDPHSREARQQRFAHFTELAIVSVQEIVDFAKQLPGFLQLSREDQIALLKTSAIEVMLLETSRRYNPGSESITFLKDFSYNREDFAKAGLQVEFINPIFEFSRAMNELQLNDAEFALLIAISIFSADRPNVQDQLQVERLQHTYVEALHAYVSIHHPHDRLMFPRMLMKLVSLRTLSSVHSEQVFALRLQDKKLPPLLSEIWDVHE
T1 sequence (Q13133 209-447): as above
LXR β LBD protein, sequence (P55055 222-460 limits assumed): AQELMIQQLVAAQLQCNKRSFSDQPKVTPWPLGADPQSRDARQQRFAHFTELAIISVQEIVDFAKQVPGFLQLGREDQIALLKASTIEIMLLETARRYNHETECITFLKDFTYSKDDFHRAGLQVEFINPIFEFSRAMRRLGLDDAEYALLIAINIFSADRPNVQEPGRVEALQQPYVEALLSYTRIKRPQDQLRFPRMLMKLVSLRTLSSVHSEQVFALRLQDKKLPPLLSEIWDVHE
T3 sequence (P55055 222-460 limits assumed): as above

Row | SMILES | Ki (LXR α LBD protein [1]) [nM] | Cell LXRα efficacy [2] | EC50 ([2]; agonist mode) [nM] | EC50 [3] [nM] | Cell LXRβ efficacy [3] | IC50 [4] [nM] | Cell LXRβ efficacy [4, 7] | IC50 [5, 7] [nM] | Ki (LXR β LBD protein) [nM] | EC50 [2] [nM] | IC50 [5] [nM] | EC50 (LXR α LBD protein [6]) [nM] | FRET LXRα efficacy (LXR α LBD protein [6]) [%] | Cell LXRα efficacy [5] | Cell LXRβ efficacy [4]
1 | CC[C@@H](O)c1cnc(N2CCN(c3ccc(F)c(S(C)(=O)=O)c3)C[C@H]2C(C)C)nc1C(F)(F)F (single isomer, unassigned) [Cpd No 12-7] | 82 | 862 (25) % | 862 | 49 | 49 (15) % | 104 | 104 (87) % | 686 | 9 | – | – | – | – | – | –
2 | Cc1nc(N2CCN(c3ccc(F)c(S(C)(=O)=O)c3)C[C@H]2C(C)C)ncc1Cl [7-12, (R)-5-chloro-2-(4-(4-fluoro-3-(methylsulfonyl)phenyl)-2-isopropylpiperazin-1-yl)-4-methylpyrimidine] | 105 | 997 (83) % | – | 177 | 177 (58) % | > 10000 | – | – | 9 | 997 | > 10000 | 677 | 86 | – | –
3 | CNS(=O)(=O)c1cc(N2CCN(c3ncc(C(C)(C)O)c(C(F)(F)F)n3)[C@H](C(C)C)C2)ccc1F [10-3, (R)-2-fluoro-5-(4-(5-(2-hydroxypropan-2-yl)-4-(trifluoromethyl)pyrimidin-2-yl)-3-isopropylpiperazin-1-yl)-N-methylbenzenesulfonamide] | 135 | 646 (35) % | 646 | 69 | 69 (24) % | 242 | – | 2000 | 5 | – | – | – | – | 2003 (83) % | –
4 | CC(C)[C@@H]1CN(c2ccc(F)c(S(C)(=O)=O)c2)CCN1c1ncc(CN(C)C(C)(C)C)c(C(F)(F)F)n1 [15-6, (R)-N-((2-(4-(4-fluoro-3-(methylsulfonyl)phenyl)-2-isopropylpiperazin-1-yl)-4-(trifluoromethyl)pyrimidin-5-yl)methyl)-N,2-dimethylpropan-2-amine] | > 3330 | – | > 20000 | > 20000 | – | 1320 | 1325 (91) % | 6220 | 360 | – | – | – | – | 6215 (98) % | –
5 | CCCCN(C)C(=O)c1cnc(N2CCN(c3ccc(F)c(S(C)(=O)=O)c3)C[C@H]2C(C)C)nc1C(F)(F)F [17-10, (R)-N-butyl-2-(4-(4-fluoro-3-(methylsulfonyl)phenyl)-2-isopropylpiperazin-1-yl)-N-methyl-4-(trifluoromethyl)pyrimidine-5-carboxamide] | 558 | – | > 20000 | > 20000 | – | 100 | 100 (89) % | 501 | 65 | – | – | – | – | 501 (94) % | –
6 | CC(C)[C@@H]1CN(c2ccc(F)c(S(C)(=O)=O)c2)CCN1c1ncc(C(=O)N(C)CCCO)c(C(F)(F)F)n1 [17-11, (R)-2-(4-(4-fluoro-3-(methylsulfonyl)phenyl)-2-isopropylpiperazin-1-yl)-N-(3-hydroxypropyl)-N-methyl-4-(trifluoromethyl)pyrimidine-5-carboxamide] | 4880 | – | > 20000 | > 20000 | – | 875 | 875 (90) % | 3460 | 548 | – | – | – | – | – | –
7 | CCOC(=O)CN(C)C(=O)c1cnc(N2CCN(c3ccc(F)c(S(C)(=O)=O)c3)C[C@H]2C(C)C)nc1C(F)(F)F [17-16, ethyl (R)-N-(2-(4-(4-fluoro-3-(methylsulfonyl)phenyl)-2-isopropylpiperazin-1-yl)-4-(trifluoromethyl)pyrimidine-5-carbonyl)-N-methylglycinate] | 2170 | – | > 20000 | > 20000 | – | 361 | – | 1530 | 194 | – | – | – | – | 1530 (99) % | 361 (86) %
8 | CC(C)[C@@H]1CN(c2ccc(F)c(S(C)(=O)=O)c2)CCN1c1ncc(C(=O)N(C)CCC(C)(C)O)c(C(F)(F)F)n1 [17-17, (R)-2-(4-(4-fluoro-3-(methylsulfonyl)phenyl)-2-isopropylpiperazin-1-yl)-N-(3-hydroxy-3-methylbutyl)-N-methyl-4-(trifluoromethyl)pyrimidine-5-carboxamide] | > 3330 | – | > 20000 | > 20000 | – | 684 | 684 (93) % | 2610 | 618 | – | – | – | – | – | –
